Values quoted from earlier work in patent publication US20210052545A1, “COMPOSITIONS AND METHODS OF THEIR USE” (priority 2018, published 2021).

Conditions: human, in vivo

Compound: NC(=O)N1c2ccccc2C=Cc2ccccc21 [carbamezepine]
- increase in the risk of blood dyscrasias: five- to eight
- patients showing a 25% decrease in white blood cell count: 7%
